# Assay results taken from PubChem BioAssay AID212 (DTP/NCI, 2004).
# Values joined by “and” are separate entries in the source; they are usually repeats but may differ in a detail not shown here. Equal entries are not always repeated. Records with an inconclusive call do not appear.
# Test system: BDF1 mice, colon carcinoma 38 sc, T/C %
# Assay: NCI In Vivo Anticancer Drug Screen. Data for tumor model Colon Carcinoma 38 (subcutaneous) in B6D2F1 (BDF1) mice
# Settings: endpoint: median tumor weight (est.), higher = larger tumour
# How it was run: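 T/C readout: treated group (T) measurement over vehicle control group (C) measurement. Endpoint is survival or tumor size in mice bearing a transplanted tumor.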
# [1] = dose: 6.25 mg/kg/injection, schedule: Q07DX002 (ip), vehicle: Klucel (hydroxypropylcellulose) (HPC)
# [2] = dose: 12.5 mg/kg/injection, schedule: Q07DX002 (ip), vehicle: Klucel (hydroxypropylcellulose) (HPC)
# [3] = dose: 25.0 mg/kg/injection, schedule: Q07DX002 (ip), vehicle: saline
# [4] = dose: 50.0 mg/kg/injection, schedule: Q07DX002 (ip), vehicle: Klucel (hydroxypropylcellulose) (HPC)
# [5] = dose: 25.0 mg/kg/injection, schedule: Q07DX002 (ip), vehicle: saline with Tween-80
# [6] = dose: 50.0 mg/kg/injection, schedule: Q07DX002 (ip), vehicle: saline with Tween-80
# [7] = dose: 200.0 mg/kg/injection, schedule: Q07DX002 (ip), vehicle: saline with Tween-80
# [8] = dose: 400.0 mg/kg/injection, schedule: Q07DX002 (ip), vehicle: saline with Tween-80
# [9] = dose: 12.5 mg/kg/injection, schedule: Q07DX002 (ip), vehicle: saline with Tween-80
# [10] = dose: 100.0 mg/kg/injection, schedule: Q07DX002 (ip), vehicle: saline with Tween-80
# [11] = dose: 3.12 mg/kg/injection, schedule: Q07DX002 (ip), vehicle: saline with Tween-80
# [12] = dose: 6.25 mg/kg/injection, schedule: Q07DX002 (ip), vehicle: saline with Tween-80
smiles,measurement,setting,value
C[C@]12C=CC(=O)C=C1CC[C@@H]1[C@@H]2[C@@H](O)C[C@@]2(C)[C@H]1CC[C@]2(O)C(=O)CO,T/C,"dose: 40.0 mg/kg/injection, schedule: Q07DX003 (ip), vehicle: Klucel (hydroxypropylcellulose) (HPC)",100 % of control
same,T/C,"dose: 80.0 mg/kg/injection, schedule: Q07DX003 (ip), vehicle: Klucel (hydroxypropylcellulose) (HPC)",56 % of control
same,T/C,"dose: 160.0 mg/kg/injection, schedule: Q07DX003 (ip), vehicle: Klucel (hydroxypropylcellulose) (HPC)",58 % of control
same,T/C,"dose: 320.0 mg/kg/injection, schedule: Q07DX003 (ip), vehicle: Klucel (hydroxypropylcellulose) (HPC)",30 % of control
same,T/C,"dose: 640.0 mg/kg/injection, schedule: Q07DX003 (ip), vehicle: Klucel (hydroxypropylcellulose) (HPC)",24 % of control
NC(=O)c1ncn2c(=O)n(CCCl)nnc12,T/C,"dose: 6.0 mg/kg/injection, schedule: Q07DX002 (ip), vehicle: saline",110 % of control
same,T/C,[1],43 % of control and 65 % of control
same,T/C,"dose: 6.25 mg/kg/injection, schedule: Q07DX002 (ip), vehicle: saline",47 % of control
same,T/C,"dose: 12.0 mg/kg/injection, schedule: Q07DX002 (ip), vehicle: saline",51 % of control
same,T/C,[2],22 % of control and 45 % of control
same,T/C,"dose: 25.0 mg/kg/injection, schedule: Q07DX002 (ip), vehicle: Klucel (hydroxypropylcellulose) (HPC)",21 % of control and 36 % of control
same,T/C,[3],55 % of control and 59 % of control
same,T/C,[4],2 % of control
same,T/C,"dose: 100.0 mg/kg/injection, schedule: Q07DX002 (ip), vehicle: saline",2 % of control
Oc1cc2c3c(c1)c1cc4c(cc1c[n+]3CC2)OCO4,T/C,"dose: 3.12 mg/kg/injection, schedule: Q07DX002 (ip), vehicle: water",102 % of control
same,T/C,"dose: 6.25 mg/kg/injection, schedule: Q07DX002 (ip), vehicle: water",77 % of control and 95 % of control
same,T/C,"dose: 25.0 mg/kg/injection, schedule: Q07DX002 (ip), vehicle: water",71 % of control
same,T/C,"dose: 50.0 mg/kg/injection, schedule: Q07DX002 (ip), vehicle: water",67 % of control and 71 % of control
C1CCC2OCCOCCOC3CCCCC3OCCOCCOC2C1 (stereo unspecified),T/C,"dose: 3.12 mg/kg/injection, schedule: Q07DX002 (ip), vehicle: Klucel (hydroxypropylcellulose) (HPC)",210 % of control and 96 % of control
same,T/C,[1],176 % of control
same,T/C,[2],85 % of control
same,T/C,[4],85 % of control
CNc1cccnc1/C=N/NC(N)=S,T/C,[5],119 % of control
same,T/C,[6],95 % of control
same,T/C,[7],45 % of control and 66 % of control
same,T/C,[8],32 % of control and 33 % of control
O=C(CN1CCOCC1)Nc1nc(-c2ccc(Cl)cc2)cs1,T/C,"dose: 50.0 mg/kg/injection, schedule: Q07DX002 (ip), vehicle: DMSO",224 % of control
same,T/C,"dose: 100.0 mg/kg/injection, schedule: Q07DX002 (ip), vehicle: DMSO",292 % of control
same,T/C,"dose: 200.0 mg/kg/injection, schedule: Q07DX002 (ip), vehicle: DMSO",247 % of control
same,T/C,"dose: 400.0 mg/kg/injection, schedule: Q07DX002 (ip), vehicle: DMSO",234 % of control
Cc1oc2c(C)c3oc(=O)cc(C)c3cc2c1CCl,T/C,[9],77 % of control and 89 % of control
same,T/C,[6],74 % of control and 77 % of control
same,T/C,[7],53 % of control
same,T/C,[8],94 % of control
C[N+](C)(C)c1ncnc2c1ncn2C1CCCO1 (stereo unspecified),T/C,"dose: 12.5 mg/kg/injection, schedule: Q07DX002 (ip), vehicle: saline",110 % of control
same,T/C,[3],84 % of control
same,T/C,"dose: 50.0 mg/kg/injection, schedule: Q07DX002 (ip), vehicle: saline",61 % of control and 77 % of control
same,T/C,"dose: 200.0 mg/kg/injection, schedule: Q07DX002 (ip), vehicle: saline",65 % of control and 89 % of control
O=S(=O)(N=N/C=C1\C=CC=CN1O)c1cccs1,T/C,[9],85 % of control
same,T/C,[5],108 % of control and 98 % of control
same,T/C,[6],92 % of control and 100 % of control
same,T/C,[10],84 % of control and 99 % of control
same,T/C,[8],67 % of control
C[Si](C)(CCl)N[Si](C)(C)CCl,T/C,[6],99 % of control
same,T/C,[10],100 % of control
same,T/C,[8],150 % of control
Cc1cc(NC(=S)SCc2ccc3c(c2)OCO3)ccc1Cl,T/C,"dose: 100.0 mg/kg/injection, schedule: Q07DX002 (ip), vehicle: Klucel (hydroxypropylcellulose) (HPC)",111 % of control
same,T/C,"dose: 200.0 mg/kg/injection, schedule: Q07DX002 (ip), vehicle: Klucel (hydroxypropylcellulose) (HPC)",82 % of control
COC(=O)C[C@](O)(CCCC(C)(C)O)C(=O)O[C@@H]1C(OC)=C[C@]23CCCN2CCc2cc4c(cc2[C@H]13)OCO4,T/C,"dose: 0.25 mg/kg/injection, schedule: Q07DX003 (ip), vehicle: saline",93 % of control
same,T/C,"dose: 0.5 mg/kg/injection, schedule: Q07DX003 (ip), vehicle: saline",95 % of control
same,T/C,"dose: 1.0 mg/kg/injection, schedule: Q07DX003 (ip), vehicle: saline",64 % of control
same,T/C,"dose: 2.0 mg/kg/injection, schedule: Q07DX003 (ip), vehicle: saline",53 % of control
CC1(c2ccc(Cl)cc2)OC(=O)C(=Cc2ccc([N+](=O)[O-])s2)C(=O)O1 (stereo unspecified),T/C,[9],77 % of control
same,T/C,[5],63 % of control
same,T/C,[6],101 % of control
same,T/C,[10],100 % of control
same,T/C,[7],79 % of control
CCCCNc1ccc2nnc(C)n2n1,T/C,"dose: 25.0 mg/kg/injection, schedule: Q07DX002 (ip), vehicle: other",102 % of control
same,T/C,"dose: 200.0 mg/kg/injection, schedule: Q07DX002 (ip), vehicle: other",98 % of control and 108 % of control
O=CC(S)CO (stereo unspecified),T/C,"dose: 12.5 mg/kg/injection, schedule: Q07DX002 (ip), vehicle: suspension in saline",76 % of control
same,T/C,"dose: 25.0 mg/kg/injection, schedule: Q07DX002 (ip), vehicle: suspension in saline",95 % of control
same,T/C,"dose: 50.0 mg/kg/injection, schedule: Q07DX002 (ip), vehicle: suspension in saline",113 % of control
same,T/C,"dose: 200.0 mg/kg/injection, schedule: Q07DX002 (ip), vehicle: suspension in saline",97 % of control
C=C1C(=O)C23[C@H](O)C1CC[C@H]2[C@]12COC3(O)[C@@H](O)[C@@H]1C(C)(C)CC[C@@H]2O,T/C,"dose: 1.56 mg/kg/injection, schedule: Q07DX002 (ip), vehicle: saline with Tween-80",104 % of control
same,T/C,[11],112 % of control and 96 % of control
same,T/C,[12],100 % of control
same,T/C,[9],80 % of control
COC(=Nc1ccccc1)SSC(C)C,T/C,[5],99 % of control
same,T/C,[6],84 % of control
same,T/C,[10],88 % of control
same,T/C,[7],100 % of control
same,T/C,[8],96 % of control
CC(C)(C)c1ccc(CN2CCN(C(c3ccccc3)c3ccc(Cl)cc3)CC2)cc1 (stereo unspecified),T/C,"dose: 8.0 mg/kg/injection, schedule: Q07DX002 (ip), vehicle: Klucel (hydroxypropylcellulose) (HPC)",92 % of control
same,T/C,"dose: 16.0 mg/kg/injection, schedule: Q07DX002 (ip), vehicle: Klucel (hydroxypropylcellulose) (HPC)",34 % of control
same,T/C,"dose: 32.0 mg/kg/injection, schedule: Q07DX002 (ip), vehicle: Klucel (hydroxypropylcellulose) (HPC)",82 % of control
same,T/C,"dose: 64.0 mg/kg/injection, schedule: Q07DX002 (ip), vehicle: Klucel (hydroxypropylcellulose) (HPC)",89 % of control
same,T/C,"dose: 256.0 mg/kg/injection, schedule: Q07DX002 (ip), vehicle: Klucel (hydroxypropylcellulose) (HPC)",87 % of control
O=C1OCC2(C(=O)O)C(=O)OCC12 (stereo unspecified),T/C,[11],124 % of control
same,T/C,[12],87 % of control
same,T/C,[5],70 % of control and 86 % of control
same,T/C,[6],109 % of control
same,T/C,[8],158 % of control
CCCCNCCCNCCCNC(=O)c1csc(-c2csc(CCNC(=O)C(NC(=O)C(C)C(O)C(C)NC(=O)C(NC(=O)c3nc(C(CC(N)=O)NCC(N)C(N)=O)nc(N)c3C)C(OC3OC(CO)C(O)C(O)C3OC3OC(CO)C(O)C(OC(N)=O)C3O)c3cnc[nH]3)C(C)O)n2)n1 (stereo unspecified),T/C,"dose: 3.75 mg/kg/injection, schedule: Q07DX002 (ip), vehicle: water",81 % of control
same,T/C,"dose: 7.5 mg/kg/injection, schedule: Q07DX002 (ip), vehicle: water",61 % of control
same,T/C,"dose: 15.0 mg/kg/injection, schedule: Q07DX002 (ip), vehicle: water",56 % of control
same,T/C,"dose: 30.0 mg/kg/injection, schedule: Q07DX002 (ip), vehicle: water",48 % of control
